Structures can show the parent of a compound that is named as a salt.
| SMILES | melting point |
| --- | --- |
| COc1ccc2c(c1)C(=O)N(c1ccc3ccn(CCN)c3c1)C2 (as salt: hydrochloride) [Example 23, 2-(1-(2-aminoethyl)-1H-indol-6-yl)-6-methoxyisoindolin-1-one hydrochloride] | 280 to 282 °C (dec.) |
| COc1ccc2c(c1)CN(c1ccc3c(ccn3C)c1)C2 [Example 19, 5-(5-methoxyisoindolin-2-yl)-1-methyl-1H-indole] | 193 to 196 °C |
| COc1ccc2c(c1)C(=O)N(c1cc3ccn(C)c3cn1)C2 [Example 42, 6-methoxy-2-(1-methyl-1H-pyrrolo[2,3-c]pyridin-5-yl)isoindolin-1-one] | 205 to 210 °C |
| COc1ccc2c(c1)C(=O)N(c1ccc3[nH]c(=O)ccc3c1)C2 [Example 34, 6-(6-methoxy-1-oxoisoindolin-2-yl)quinolin-2(1H)-one] | 305 to 310 °C |
| COc1ccc2c(c1)C(=O)N(c1ccc3ncccc3c1)C2 [Example 32, 6-methoxy-2-(quinolin-6-yl)isoindolin-1-one] | 194 to 197 °C |
| Cn1ccc2cc(N3Cc4ccc(OC(F)F)cc4C3=O)ccc21 [Example 2, 6-(difluoromethoxy)-2-(1-methyl-1H-indol-5-yl)isoindolin-1-one] | 180 to 182 °C |
| COc1ccc2c(c1)C(=O)N(c1ccc3nc(C)ncc3c1)C2 [Example 49, 6-methoxy-2-(2-methylquinazolin-6-yl)isoindolin-1-one] | 245 to 247 °C |
| COc1ccc2c(c1)C(=O)N(c1ccc3c(ccn3C)c1)C2 [Example 1, 6-methoxy-2-(1-methyl-1H-indol-5-yl)isoindolin-1-one] | 193 to 197 °C |
| Cn1ccc2cc(N3Cc4ccc(N5CCCC5)cc4C3=O)ccc21 [Example 16, 2-(1-methyl-1H-indol-5-yl)-6-(pyrrolidin-1-yl)isoindolin-1-one] | 252 to 253 °C |
| CCOc1ccc2c(c1)C(=O)N(c1ccc3c(ccn3C)c1)C2 [Example 6, 6-ethoxy-2-(1-methyl-1H-indol-5-yl)isoindolin-1-one] | 185 to 190 °C |
| Cn1ccc2cc(N3Cc4ccc(OC(F)(F)Br)cc4C3=O)ccc21 [Example 3, 6-(bromodifluoromethoxy)-2-(1-methyl-1H-indol-5-yl)isoindolinl-one] | 185 to 186 °C |
| COc1ccc2c(c1)C(=O)N(c1ccc3c(ccc[n+]3[O-])c1)C2 [Example 33, 6-(6-methoxy-1-oxoisoindolin-2-yl)quinoline 1-oxide] | 251 to 255 °C |
| COc1ccc2c(c1)C(=O)N(c1ccc3c(c1)N(C)CCN3C)C2 [Example 38, 2-(1,4-dimethyl-1,2,3,4-tetrahydroquinoxalin-6-yl)-6-methoxyisoindolin-1-one] | 137 to 142 °C |
| COc1ccc2c(c1)C(=O)N(c1ccc3c(c1)n(C)c(=O)n3C)C2 [Example 36, 5-(6-methoxy-1-oxoisoindolin-2-yl)-1,3-dimethyl-1H-benzo[d]imidazol-2(3H)-one] | 268 to 270 °C |
| COc1ccc2c(c1)C(=O)N(c1ccc3c(ccn3C)n1)C2 [Example 41, 6-methoxy-2-(1-methyl-1H-pyrrolo[3,2-b]pyridin-5-yl)isoindolin-1-one] | 230 to 234 °C |
| CCOc1ccc2c(c1)C(=O)N(c1ccc3sccc3c1)C2 [Example 27, 2-(benzo[b]thiophen-5-yl)-6-ethoxyisoindolin-1-one] | 127 to 129 °C |
| COc1ccc2c(c1)C(=O)N(c1cnc3c(ccn3C)c1)C2 [Example 43, 6-methoxy-2-(1-methyl-1H-pyrrolo[2,3-b]pyridin-5-yl)isoindolin-1-one] | 198 to 199 °C |
| Cn1ccc2cc(N3Cc4c(N)cccc4C3=O)ccc21 [Example 9, 4-amino-2-(1-methyl-1H-indol-5-yl)isoindolin-1-one] | 198 to 203 °C |
| Cn1ccc2ccc(N3Cc4ccc(-c5cccnc5)cc4C3=O)cc21 [Example 24, 2-(1-methyl-1H-indol-6-yl)-6-(pyridin-3-yl)isoindolin-1-one] | 187 to 188 °C |
| CC(=O)Nc1ccc2c(c1)C(=O)N(c1ccc3c(ccn3C)c1)C2 [Example 8, N-(2-(1-methyl-1H-indol-5-yl)-3-oxoisoindolin-5-yl)acetamide] | 275 to 280 °C |
| COc1ccc2c(c1)C(=O)N(c1ccc3ccoc3c1)C2 [Example 48, 2-(benzofuran-6-yl)-6-methoxyisoindolin-1-one] | 141 to 143 °C |
| CC(C)Cc1ccc2c(c1)C(=O)N(c1ccc3c(ccn3C)c1)C2 [Example 12, 6-isobutyl-2-(1-methyl-1H-indol-5-yl)isoindolin-1-one] | 193 to 194 °C |
| O=C1c2cc(OC(F)F)ccc2CN1c1ccc2c(c1)CCC2 [Example 50, 6-(difluoromethoxy)-2-(2,3-dihydro-1H-inden-5-yl)isoindolin-1-one] | 137 to 139 °C |
| Cn1ccc2cc(N3Cc4ccc(Br)cc4C3=O)ccc21 [Example 11, 6-bromo-2-(1-methyl-1H-indol-5-yl)isoindolin-1-one] | 235 to 237 °C |

| SMILES | melting point |
| --- | --- |
| CC(=O)Nc1cccc2c1CN(c1ccc3c(ccn3C)c1)C2=O [Example 10, N-(2-(1-methyl-1H-indol-5-yl)-1-oxoisoindolin-4-yl)acetamide] | 239 to 243 °C |
| CN(C)c1ccc2c(c1)C(=O)N(c1ccc3ccsc3c1)C2 [Example 30, 2-(benzo[b]thiophen-6-yl)-6-(dimethylamino)isoindolin-1-one] | 195 to 197 °C |
| COc1ccc2c(c1)C(=O)N(c1ccc3cccnc3c1)C2 [Example 51, 6-methoxy-2-(quinolin-7-yl)isoindolin-1-one] | 220 to 223 °C |
| Cn1ccc2cc(N3Cc4ccc(O)cc4C3=O)ccc21 [Example 5, 6-hydroxy-2-(1-methyl-1H-indol-5-yl)isoindolin-1-one] | 230 to 235 °C |
| COc1ccc2c(c1)C(=O)N(c1ccc3c(c1)CCCN3C)C2 [Example 45, 6-methoxy-2-(1-methyl-1,2,3,4-tetrahydroquinolin-6-yl)isoindolin-1-one] | 123 to 127 °C |
| Cn1ccc2cc(N3Cc4ccc(OCC(F)(F)F)cc4C3=O)ccc21 [Example 7, 2-(1-methyl-1H-indol-5-yl)-6-(2,2,2-trifluoroethoxy)isoindolin-1-one] | 182 to 188 °C |
| COc1ccc2c(c1)C(=O)N(c1ccc3ccn(CC#N)c3c1)C2 [Example 22, 2-(6-(6-methoxy-1-oxoisoindolin-2-yl)-1H-indol-1-yl)acetonitrile] | 218 to 220 °C |
| COc1ccc2c(c1)C(=O)N(c1ccc3c(c1)cc(C)n3C)C2 [Example 18, 2-(1,2-dimethyl-1H-indol-5-yl)-6-methoxyisoindolin-1-one] | 209 to 213 °C |
| Cn1ccc2cc(N3Cc4ccc(OC(F)(F)C(F)Cl)cc4C3=O)ccc21 (centres unmarked) [Example 4, 6-(2-chloro-1,1,2-trifluoroethoxy)-2-(1-methyl-1H-indol-5-yl)isoindolin-1-one] | 200 to 205 °C |
| COc1ccc2c(c1)C(=O)N(c1ccc3ncsc3c1)C2 [Example 47, 2-(benzo[d]thiazol-6-yl)-6-methoxyisoindolin-1-one] | 204 to 207 °C |
| COc1ccc2c(c1)C(=O)N(c1ccc3c(cnn3C)c1)C2 [Example 44, 6-methoxy-2-(1-methyl-1H-indazol-5-yl)isoindolin-1-one] | 213 to 214 °C |
| COc1ccc2c(c1)CN(c1ccc3sccc3c1)C2=O [Example 25, 2-(benzo[b]thiophen-5-yl)-5-methoxyisoindolin-1-one] | 183 to 186 °C |
| COc1ccc2c(c1)C(=O)N(c1ccc3c(ccn3C(C)C)c1)C2 [Example 17, 2-(1-isopropyl-1H-indol-5-yl)-6-methoxyisoindolin-1-one] | 144 to 148 °C |
| CCCCc1ccc2c(c1)C(=O)N(c1ccc3c(ccn3C)c1)C2 [Example 13, 6-butyl-2-(1-methyl-1H-indol-5-yl)isoindolin-1-one] | 167 to 168 °C |
| O=C1c2cc(O)ccc2CN1c1ccc2sccc2c1 [Example 26, 2-(benzo[b]thiophen-5-yl)-6-hydroxyisoindolin-1-one] | 226 to 228 °C |
| COc1ccc2c(c1)C(=O)N(c1ccc3cnn(C)c3c1)C2 | 175 to 177 °C |
| CN(C)c1ccc2c(c1)C(=O)N(c1ccc3c(c1)CCN3C)C2 [Example 31, 6-(dimethylamino)-2-(1-methylindolin-5-yl)isoindolin-1-one] | 268 to 270 °C |
| C/C=C(/C)c1ccc2c(c1)C(=O)N(c1ccc3c(ccn3C)c1)C2 [Example 14, (Z)-6-(but-2-en-2-yl)-2-(1-methyl-1H-indol-5-yl)isoindolin-1-one] | 144 to 145 °C |
| COc1ccc2c(c1)C(=O)N(c1ccc3ccn(C)c3c1)C2 [Example 20, 6-methoxy-2-(1-methyl-1H-indol-6-yl)isoindolin-1-one] | 158 to 161 °C |
| COc1ccc2c(c1)C(=O)N(c1ccc(C(C)C)cn1)C2 [Example 39, 2-(5-isopropylpyridin-2-yl)-6-methoxyisoindolin-1-one] | 109 to 110 °C |
| CCC(C)c1ccc2c(c1)C(=O)N(c1ccc3c(ccn3C)c1)C2 (centres unmarked) [Example 15, 6-sec-butyl-2-(1-methyl-1H-indol-5-yl)isoindolin-1-one] | 146 to 147 °C |
| COc1ccc2c(c1)C(=O)N(c1ccc3[nH]c(=O)[nH]c3c1)C2 [Example 35, 5-(6-methoxy-1-oxoisoindolin-2-yl)-1H-benzo[d]imidazol-2(3H)-one] | 355 to 360 °C (dec.) |
| COc1ccc2c(c1)C(=O)N(c1ccc3c(c1)NCCN3)C2 [Example 37, 6-methoxy-2-(1,2,3,4-tetrahydroquinoxalin-6-yl)isoindolin-1-one] | 159 to 163 °C |

From patent US20100267712A1, “ISOINDOLINE COMPOUNDS FOR THE TREATMENT OF SPINAL MUSCULAR ATROPHY AND OTHER USES” (The United States of America, as represented by the …, priority 2007, published 2010)
